Laboratory results reported in patent US20020137929A1, “1 - (3-heterocyclylphenyl) isothiourea, -isourea, -guanidine and -amidine herbicidal agents” (Intellectual Property Department, BASF Aktiengesellschaft, priority 1998, published 2002).

Key:
ORYSAT (Rice, Tebonnet) [1] = experiment: Preemergence herbicidal evaluation; assay type: in vivo, Oryza sativa, (L.) Tebonnet; settings: rated 4-5 weeks after treatment
Procedure, shortened: (§1)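 Sown cups got a single aqueous acetone spray of test compound (roughly 0.0156–0.500 kg/ha) before seedlings emerged. Evaluation, 4–5 weeks on, used a 0–9 visual scale covering plant stand, vigor, size, malformation, chlorosis and general appearance compared with controls.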

SETVI (Foxtail, Green) = experiment: Preemergence herbicidal evaluation; assay type: in vivo, Setaria viridis; settings: rated 4-5 weeks after treatment
Procedure, shortened: as §1

CYPIR (Rice Flatsedge) = experiment: Preemergence weed control under flooded paddy conditions; assay type: in vivo, Cyperus iria; settings: rated 3-4 weeks after treatment
Procedure, shortened: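 Ratings on a 0-9 visual scale cover stand, vigor, malformation, size, chlorosis and overall appearance relative to a control, taken three to four weeks post-treatment. Application was into flood water over freshly sown silt loam at roughly 0.0313 to 0.500 kg/ha.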

ECHCG (Barnyardgrass) = experiment: Postemergence herbicidal evaluation; assay type: in vivo, Echinochloa crus-galli; settings: postemergence
Procedure, shortened: (§2)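 First, seedlings were raised for around two weeks. Next, test material in 50/50 acetone/water containing 0.5% TWEEN 20 was sprayed through a nozzle at 40 psi, equivalent to about 0.0156–0.500 kg/ha. Finally, after 4–5 weeks in the greenhouse, plants were rated 0–9.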

GALAP (Galium) = experiment: Preemergence herbicidal evaluation; assay type: in vivo, Galium aparine; settings: rated 4-5 weeks after treatment
Procedure, shortened: as §1

MOOVA (Monochoria) = experiment: Preemergence weed control under flooded paddy conditions; assay type: in vivo, Monochoria vaginalis; settings: rated 3-4 weeks after treatment
Procedure, shortened: (§3)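 Seeds or propagules sown in silt loam kept flooded 1.5-3 cm; compounds in 50/50 acetone/water pipetted into flood water at about 0.0313 to 0.500 kg/ha. Greenhouse; visual 0-9 rating versus untreated control 3-4 weeks after treatment.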

[2] = tested on: TRZAWR (Wheat, Winter, cv Riband); experiment: Preemergence herbicidal evaluation; assay type: in vivo, Triticum aestivum; settings: rated 4-5 weeks after treatment
Procedure, shortened: as §1

[3] = tested on: CHEAL (Lambsquarters, Common); experiment: Postemergence herbicidal evaluation; assay type: in vivo, Chenopodium album; settings: postemergence
Procedure, shortened: as §2

ZEAMX (Corn, Field) = experiment: Preemergence herbicidal evaluation; assay type: in vivo, Zea mays; settings: rated 4-5 weeks after treatment
Procedure, shortened: as §1

[4] = tested on: GLXMAW (Soybean, Williams); experiment: Preemergence herbicidal evaluation; assay type: in vivo, Glycine max, (L.) Merr. cv Williams; settings: rated 4-5 weeks after treatment
Procedure, shortened: as §1

CASOB (Sicklepod) = experiment: Postemergence herbicidal evaluation; assay type: in vivo, Cassia obtusifolia; settings: postemergence
Procedure, shortened: as §2

[5] = tested on: SAGPY (Arrowhead (Pygmaea)); experiment: Preemergence weed control under flooded paddy conditions; assay type: in vivo, Sagittaria pygmaea; settings: rated 3-4 weeks after treatment
Procedure, shortened: as §3

ORYSAT (Rice, Tebonnet) [6] = experiment: Postemergence herbicidal evaluation; assay type: in vivo, Oryza sativa, (L.) Tebonnet; settings: postemergence
Procedure, shortened: as §2

Compound: Cn1c(C(F)(F)F)cc(=O)n(-c2cc(N=C3SCC(=O)N3C3CCC3)c(Cl)cc2F)c1=O [Compound 168, 3-{4-Chloro-5-[(3-cyclobutyl-4-oxo-2-thiazolidinylidene)amino]-2-fluorophenyl}-1-methyl-6-(trifluoromethyl)-2,4(1H,3H)-pyrimidinedione]
- Preemergence herbicidal rating ORYSAT (ORYSAT (Rice, Tebonnet) [1]; 0.0156 kg/ha): 0.0
- Preemergence herbicidal rating ORYSAT (ORYSAT (Rice, Tebonnet) [1]; 0.0313 kg/ha): 0.0
- Preemergence herbicidal rating ORYSAT (ORYSAT (Rice, Tebonnet) [1]; 0.0625 kg/ha): 0.0
- Preemergence herbicidal rating ORYSAT (ORYSAT (Rice, Tebonnet) [1]; 0.1250 kg/ha): 0.0
- Preemergence herbicidal rating ORYSAT (ORYSAT (Rice, Tebonnet) [1]; 0.2500 kg/ha): 0.0
- Preemergence herbicidal rating SETVI (SETVI (Foxtail, Green); 0.0156 kg/ha): 0.0
- Preemergence herbicidal rating SETVI (SETVI (Foxtail, Green); 0.0313 kg/ha): 0.0
- Preemergence herbicidal rating SETVI (SETVI (Foxtail, Green); 0.0625 kg/ha): 0.0
- Preemergence herbicidal rating SETVI (SETVI (Foxtail, Green); 0.1250 kg/ha): 0.0
- Preemergence herbicidal rating SETVI (SETVI (Foxtail, Green); 0.2500 kg/ha): 5.0
- herbicidal effect rating, CYPIR (CYPIR (Rice Flatsedge); 0.0313 kg/ha): 0.0
- herbicidal effect rating, CYPIR (CYPIR (Rice Flatsedge); 0.0625 kg/ha): 0.0
- herbicidal effect rating, CYPIR (CYPIR (Rice Flatsedge); 0.1250 kg/ha): 0.0
- herbicidal effect rating, CYPIR (CYPIR (Rice Flatsedge); 0.2500 kg/ha): 0.0
- Herbicidal rating ECHCG (ECHCG (Barnyardgrass); rate 0.0156 kg/ha): 0.0
- Herbicidal rating ECHCG (ECHCG (Barnyardgrass); rate 0.0313 kg/ha): 0.0
- Herbicidal rating ECHCG (ECHCG (Barnyardgrass); rate 0.0625 kg/ha): 4.0
- Preemergence herbicidal rating GALAP (GALAP (Galium); 0.0156 kg/ha): 0.0
- Preemergence herbicidal rating GALAP (GALAP (Galium); 0.0313 kg/ha): 0.0
- Preemergence herbicidal rating GALAP (GALAP (Galium); 0.0625 kg/ha): 0.0
- Preemergence herbicidal rating GALAP (GALAP (Galium); 0.1250 kg/ha): 0.0
- Preemergence herbicidal rating GALAP (GALAP (Galium); 0.2500 kg/ha): 3.0
- herbicidal effect rating, MOOVA (MOOVA (Monochoria); 0.0313 kg/ha): 6.0
- herbicidal effect rating, MOOVA (MOOVA (Monochoria); 0.0625 kg/ha): 6.0
- herbicidal effect rating, MOOVA (MOOVA (Monochoria); 0.1250 kg/ha): 6.0
- herbicidal effect rating, MOOVA (MOOVA (Monochoria); 0.2500 kg/ha): 7.0
- Preemergence herbicidal rating TRZAWR ([2]; 0.0156 kg/ha): 0.0
- Preemergence herbicidal rating TRZAWR ([2]; 0.0313 kg/ha): 0.0
- Preemergence herbicidal rating TRZAWR ([2]; 0.0625 kg/ha): 0.0
- Preemergence herbicidal rating TRZAWR ([2]; 0.1250 kg/ha): 0.0
- Preemergence herbicidal rating TRZAWR ([2]; 0.2500 kg/ha): 0.0
- Herbicidal rating CHEAL ([3]; rate 0.0156 kg/ha): 2.0
- Herbicidal rating CHEAL ([3]; rate 0.0313 kg/ha): 3.0
- Herbicidal rating CHEAL ([3]; rate 0.0625 kg/ha): 4.0
- Preemergence herbicidal rating ZEAMX (ZEAMX (Corn, Field); 0.0156 kg/ha): 0.0
- Preemergence herbicidal rating ZEAMX (ZEAMX (Corn, Field); 0.0313 kg/ha): 0.0
- Preemergence herbicidal rating ZEAMX (ZEAMX (Corn, Field); 0.0625 kg/ha): 0.0
- Preemergence herbicidal rating ZEAMX (ZEAMX (Corn, Field); 0.1250 kg/ha): 0.0
- Preemergence herbicidal rating ZEAMX (ZEAMX (Corn, Field); 0.2500 kg/ha): 0.0
- Preemergence herbicidal rating GLXMAW ([4]; 0.0156 kg/ha): 0.0
- Preemergence herbicidal rating GLXMAW ([4]; 0.0313 kg/ha): 0.0
- Preemergence herbicidal rating GLXMAW ([4]; 0.0625 kg/ha): 0.0
- Preemergence herbicidal rating GLXMAW ([4]; 0.1250 kg/ha): 0.0
- Preemergence herbicidal rating GLXMAW ([4]; 0.2500 kg/ha): 0.0
- Herbicidal rating CASOB (CASOB (Sicklepod); rate 0.0156 kg/ha): 0.0
- Herbicidal rating CASOB (CASOB (Sicklepod); rate 0.0313 kg/ha): 0.0
- Herbicidal rating CASOB (CASOB (Sicklepod); rate 0.0625 kg/ha): 2.0
- herbicidal effect rating, SAGPY ([5]; 0.0313 kg/ha): 0.0
- herbicidal effect rating, SAGPY ([5]; 0.0625 kg/ha): 0.0
- herbicidal effect rating, SAGPY ([5]; 0.1250 kg/ha): 0.0
- herbicidal effect rating, SAGPY ([5]; 0.2500 kg/ha): 2.0
- Herbicidal rating ORYSAT (ORYSAT (Rice, Tebonnet) [6]; rate 0.0156 kg/ha): 1.0
- Herbicidal rating ORYSAT (ORYSAT (Rice, Tebonnet) [6]; rate 0.0313 kg/ha): 1.5
- Herbicidal rating ORYSAT (ORYSAT (Rice, Tebonnet) [6]; rate 0.0625 kg/ha): 2.5
